Test results as given in patent US6417159B1 (Queen's University at Kingston, priority 1996, dated 2002).
“And” between values parts separate entries of the source, which are not always exact repeats. Identical values can stand only once. Like-named read-outs stand apart in the source and are kept apart here. Where no end group is shown, it is not given here. The star is where a group is joined. 125I = [125I]*

Assays:
ED8 chick DRG neurons = test: NGF-mediated neurite growth by ED8 chick DRG sensory neurons; type: cell-based; details: for % of Control Response DRG: (peptide with NGF − NGF alone)/(R3 with NGF − NGF alone) ×100, scored at 43, 44 and 48 hours, M ± SEM, n = 3 assays; for Reduction (loss) of biological effect relative to R3 on enhancement of NGF-mediated neurite growth: DRG cells, 40-50 hours in vitro; for Neurite growth in control wells: 16-20 hours
p65 subunit of NFkB = target: T1, p65 subunit of NFkB (Rattus norvegicus, UniProt Q7TQN4); test: Chemical cross-linking of 125I-Y-R3 to 65 kDa species in PC12 soluble extract, displacement by unlabeled peptide; type: binding; details: for Displacement of radiolabel from 65 kDa band: 0.5 μM 125I-Y-R3, 150-fold molar excess of unlabeled peptide, densitometric scanning
T1 construct: endogenous in cells; host or cells: PC12 (soluble cell extract)
T1 sequence (Q7TQN4 whole entry): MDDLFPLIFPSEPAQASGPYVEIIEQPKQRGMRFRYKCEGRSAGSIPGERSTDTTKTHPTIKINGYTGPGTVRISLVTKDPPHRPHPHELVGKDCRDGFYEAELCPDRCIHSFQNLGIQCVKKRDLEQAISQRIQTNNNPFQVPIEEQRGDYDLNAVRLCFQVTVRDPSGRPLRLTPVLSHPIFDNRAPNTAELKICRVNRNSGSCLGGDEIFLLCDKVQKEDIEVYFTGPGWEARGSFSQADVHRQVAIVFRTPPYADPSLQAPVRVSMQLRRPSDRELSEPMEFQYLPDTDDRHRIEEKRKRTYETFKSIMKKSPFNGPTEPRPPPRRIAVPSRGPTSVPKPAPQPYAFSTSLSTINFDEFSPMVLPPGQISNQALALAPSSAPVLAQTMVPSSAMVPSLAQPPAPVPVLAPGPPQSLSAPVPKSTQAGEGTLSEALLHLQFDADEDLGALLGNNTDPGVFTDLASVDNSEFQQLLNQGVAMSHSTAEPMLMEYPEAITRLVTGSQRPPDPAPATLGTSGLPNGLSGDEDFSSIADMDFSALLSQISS
Protocol: Y-R3 (5 μg) was labeled with 1 mCi of Na^125I (Amersham) using iodobeads (Pierce) in 50 mM sodium phosphate buffer, as described in Part A. ^125I-Y-R3 (0.5 μM) was incubated with PC12 cell extract (prepared as above) or affinity purified proteins at pH 7.0, with and without a 150-fold molar excess of competing unlabeled peptide for 2 hrs at 4° C. At that time, EDC (Pierce) and NHS (Pierce) were added to a final concentration of 2 mM each and the reaction allowed to proceed for 30 min at room temperature. The reaction was quenched by adding Tris-HCl to a final concentration of 50 mM. An aliquot was removed and mixed with 4 volumes of SDS sample buffer for SDS-PAGE and the remainder subjected to immunoprecipitation.
Cell extract or R3 affinity purified material was incubated for 4 hrs at 4° C. with 5 μl of agarose conjugated goat anti-NFkB p65 (Santa Cruz). The gel was washed at 4° C. with 5×1 ml of HKR containing 1% NP40, followed by a final wash without detergent. SDS reducing sample buffer was added to the gel and the samples were heated at 95° C. for 5 minutes prior to electrophoresis as described above.
To examine the structural specificity of the interaction of R3 peptide with the 65 kDa species, PC12 cell soluble extract was chemically cross-linked with 0.5 μM ^125I-Y-R3 in the absence and presence of a 150-fold molar excess of unlabeled R9 or R10. […] The reaction mixtures were separated by SDS-PAGE, followed by autoradiography.

PC12 cells [1] = type: cell-based, rat
Protocol: Labeling of all tyrosinated peptides for uptake studies were carried out using IODO-BEADS™ (Pierce). Briefly, 5 μg of the desired peptide was iodinated at pH 7.4, at room temperature, and separated from free iodide by selective elution from a C-18 SEP PAK LIGHT™ (Waters-Millipore) in 80% CH3CN, 1.0% trifluoroacetic acid. The solvent was removed at room temperature under a stream of nitrogen. Specific activity of labeled peptide was 50-65 cpm-pg^−1.
Stock solutions of [^125I]-labeled peptides (final concentration […], specific activity 50-800 cpm·pmol^−1) were prepared in RPMI medium with 10% fetal calf serum. Uptake was initiated by adding the peptide to the cell suspension in RPMI 1640 with 10% fetal calf serum, maintained at 37° C. Cell-associated label was determined by counting the cell pellet obtained by microcentrifuging an aliquot (100 μl containing 1-3×10^5 cells) of the cell suspension through a layer of silicone oil. The silicone oil was 3:1 mixture of dibutyl phthalate:dinonyl phthalate (Fluke Chemie, Switzerland) with a density of 1.027 (Drevon et al., 1977).
The uptake versus were corrected for “adsorption” of peptides to the cell surface at zero time. This was assessed by determining label that remained associated with cells removed immediately after the addition of [^125I]-peptide and washed by 2 cycles of centrifugation at […] for 5 minutes and resuspension in peptide-free tissue culture medium. At the indicated times, cold chase values were obtained by removing an aliquot (500 μl) of the cell suspension for centrifugation at 150×g for 5 minutes, followed by resuspension in its initial volume of RPMI+10% fetal calf serum containing 50 μM (10×original) unlabeled peptide. The cell suspension was then returned at 37° C. for a further 30 minutes. At the end of this time, cell-associated label was determined as above.

PC12 cells [2] = test: NGF-mediated neurite growth by PC12 cells; type: cell-based, rat; details: PC12 cells, peptide co-incubated with NGF
Protocol: PC12 cells or PC12^nnr5 cells (Loeb et al., 1991) were seeded on poly-D-lysine-coated (0.1 mg·ml^−1, overnight) 96-well microculture dishes (Falcon) at approximately 800 cells per well with RPMI with 10% fetal calf serum. Peptides were added to replicate wells 48 hours before, or at the time of, addition of NGF. NGF was prepared by the method of Mobley et al. (1976) and used at 1-2 nM. Other additives were diluted at least 100-fold and added to the wells as described. At various times following incubation at 37° C., 5% CO2, wells were scored for neurite-bearing cells by serial counting of representative circumferences of each well.
A Leitz Diavert inverted microscope with phase optics was used to score neurite growth. For both PC12 cells and sensory neurons, a neurite was scored as such if its calibre from origin to terminal was approximately the same and the length was equal to or greater than 1.5 cell body diameters.

c-fos mRNA = details: one-hour exposure
PC12 cells [3] = test: Cytotoxicity in PC12 cultures; details: concentration of 50 μM
[4] = target: T2, p65 subunit of transcription factor NFkB from PC12 cell soluble extract (rat, UniProt Q7TQN4 1-550); test: competition of unlabeled R3 against 125I-Y-R3 cross-linking to the 65 kDa protein
T2 construct: also called NFkB p65; 65 kDa species
T2 sequence (Q7TQN4 whole entry): as above
Protocol: (§1) At that time, EDC (Pierce) and NHS (Pierce) were added to a final concentration of 2 mM each and the reaction allowed to proceed for 30 min at room temperature. The reaction was quenched by adding Tris-HCl to a final concentration of 50 mM. An aliquot was removed and mixed with 4 volumes of SDS sample buffer for SDS-PAGE and the remainder subjected to immunoprecipitation.
The p65 subunit of NFkB was detected in PC12 soluble extracts and in the R3-affinity purified material (FIG. 9A). This 65 kDa protein could also be specifically cross-linked to the iodinated probe for the intracellular domain of P75^NTR, the interaction being displaced by a 150-fold molar excess of unlabeled peptide, and the complex immunoprecipitated by antibodies to the transcription factor (FIGS. 9B and […]).

[5] = target: T2, p65 subunit of transcription factor …; test: chemical cross-linking (EDC/NHS) of 125I-Y-R3 to PC12 soluble extract, SDS-PAGE, autoradiography
Protocol: as §1

[6] = target: T2, p65 subunit of transcription factor …; test: affinity chromatography of PC12 soluble extract on R3 matrix, SDS-PAGE, silver stain
Protocol: PC12 cells were harvested and washed by 3 cycles of resuspension and centrifugation in Ca^2+, Mg^2+-free Gey's Balanced Salt Solution (CMF). […] The column was then washed with 10 bed volumes of homogenizing buffer and 10 bed volumes of detergent-free homogenizing buffer. The bound material was then eluted with 0.5 mg/ml R3 peptide. The eluate was dialyzed (3500 cut off) extensively against 10 mM sodium phosphate pH 7.4 and taken to dryness under reduced pressure on a Speed Vac (Savant).
A soluble extract of PC12 cells was applied to the R3 affinity resin. […] A similar profile was obtained when extracts from "primed" (exposed to 100 ng/ml NGF for 10 days) PC12 cells, PC12^nnr5 cells or ED9 chick brain were used.

[7] = 10 μM peptide in solution, no additive to culture medium
[8] = time course of association with PC12 cells

With LDALLAALRAIQR [R9] the “% of Control Response DRG” value (ED8 chick DRG neurons) was 61 ± 1^(5) %, the “Reduction (loss) of biological effect relative to R3 on enhancement of NGF-mediated neurite growth” value (ED8 chick DRG neurons) was “approximately 40%” and the “Activity relative to R3 in influencing NGF-mediated neurite growth” value (ED8 chick DRG neurons; in vitro) was 50-60% and 61%. The “Displacement of radiolabel from 65 kDa band” value (p65 subunit of NFkB) was 76%.

LDALLAALRRRQR [R10] was tested, and the “% of Control Response DRG” value (ED8 chick DRG neurons) was 29 ± 4^(5) %, the “Reduction (loss) of biological effect relative to R3 on enhancement of NGF-mediated neurite growth” value (ED8 chick DRG neurons) was “approximately 70%” and the “Displacement of radiolabel from 65 kDa band” value (p65 subunit of NFkB) was 43%.

“R4: hybrid: R3 linked via its amino terminus to an 11-amino acid peptide homologue of the inner transmembrane domain of p75^NTR (Sequence ID No. 7) (VVVGLVAYIAFLDALLAALRRIQR)” was tested, and the “Cell association resistant to chase (uptake), in words” value (PC12 cells [1]) was “did not suggest an uptake process”, the “Time at half-maximal uptake” value (PC12 cells [1]; [7]) was 0 min and the “Effect on NGF-mediated neurite growth, co-incubation, in words” value (PC12 cells [2]) was “did not enhance NGF-mediated neurite growth”.

“Y-R3: tyrosinated peptide analogue of R3, N-terminal tyrosine (Sequence ID No. 6); radio-iodinated for uptake and cross-linking (YLDALLAALRRIQR; also: radio-iodinated)” was tested, and the “Uptake at full saturation” value (PC12 cells [1]) was 20 pmol/10^6 cells, the “Time at half-maximal uptake” value (PC12 cells [1]; [7]) was 30 min and the “Time at half-maximal uptake” value (PC12 cells [1]; 10 μM peptide, MgCl2 (10 mM) added to culture medium) was 30 min. For the same molecule, the “Time for which label remained resistant to chase by excess unlabeled R3” value (PC12 cells [1]; cold chase) was “up to 50 hours”, the “Time at which uptake was half-maximally saturated” value (PC12 cells [1]; [8]) was 30 min and the “Time to full saturation of uptake” value (PC12 cells [1]; [8]) was 10 to 20 h. The “Interaction with 65 kDa species by chemical cross-linking, in words” value (p65 subunit of NFkB; soluble PC12 extract) was “interacted specifically”.

In the case of mastoparan [MP], the “Effect on NGF-mediated c-fos mRNA induction, in words” value (c-fos mRNA) is reported as “stimulatory effect”, the “Cytotoxicity, in words” value (PC12 cells [3]) is reported as “cytotoxic” and the “Effect on NGF-mediated neurite growth, co-incubation, in words” value (PC12 cells [2]) is reported as “did not significantly influence”.

In the case of nerve growth factor [NGF], the “Neurite growth in control wells” value (ED8 chick DRG neurons; NGF 0.04 pM alone) is reported as 5.5±2.1, the “Neurite growth in control wells” value (ED8 chick DRG neurons; NGF 0.4 pM alone) is reported as 14.0±6.1 and the “Neurite growth in control wells” value (ED8 chick DRG neurons; NGF 4 pM alone) is reported as 31.7±8.7. For the same molecule, the “Neurite growth in control wells” value (ED8 chick DRG neurons; NGF 40 pM alone) was 44.8±8.6.

B1: R3 peptide (synthetic peptide identical to rat p75NTR 367-379) (peptide)
peptide: LDALLAALRRIQR
notes: also called peptide R3; unlabeled R3
B1: binds [4].

B2: 125I-Y-R3 (R3 peptide with N-terminal tyrosine, radio-iodinated) (peptide)
peptide: Y(125I)LDALLAALRRIQR
notes: Used at 0.5 uM in cross-linking with EDC/NHS; also called tyrosinated peptide analogue of R3; iodinated probe for the intracellular domain of p75NTR
B2: binds [5].

B3: R3 affinity matrix peptide (R3 with six residues added to the N-terminus, coupled to Aminolink agarose) (peptide)
peptide: KAYIAFLDALLAALRRIQR
modifications: also: coupled at pH 7.0 to Aminolink agarose
notes: Immobilised on agarose beads in the assay
B3: binds [6].
